Holding throughout (assay type): in vivo
Assay [1] has as its system Alopecurus myosuroides. Put plainly: greenhouse herbicidal trial, pre-emergence application, assessment 21 days after treatment. As for the experimental part:
(§1) The trials are carried out under greenhouse conditions in pre- and post-emergence applications. The plant seeds are sown in pots containing a loamy sand soil (0.5 I). The herbicides are applied as single treatments, or in a combination comprising a BAP compound and a non-BAP compound as designated, before or after emergence of weeds and crop. The herbicidal performance is assessed as percent damage in comparison to the untreated control plants. The assessment is done 21 days after the treatment. Wheat and barley are treated at the 3-4 leaf stage, the broad-leaf weeds at the 2-4 leaf stage and annual grasses at the 2-3 leaf stage.

For assay [2], the system named is Setaria viridis. As to the kind of experiment: greenhouse herbicidal trial, post-emergence application, assessment 21 days after treatment. As for the experimental part: as §1
Assay [3] deals with Galium aparine. The assay is described as above. As for the experimental part:
as §1

Assay [4] relates to Stellaria media. Described as above. As for the experimental part: as §1
Assay [5] deals with Papaver rhoeas. Described as above. The protocol:
as §1

Assay [6] has as its system Lamium purpureum. The assay is described as above. As for the experimental part:
as §1

Assay [7] deals with Lolium perenne. Described as above. As for the experimental part: as §1
Assay [8] concerns Alopecurus myosuroides. Described as above. The protocol: as §1
For assay [9], the system named is Poa annua. Described as above. The protocol: as §1
The test system of assay [10] is Viola arvensis. The description is as above. As for the experimental part:
as §1

In assay [11] the test system is Veronica persica. The description is as above. The protocol:
as §1

For assay [12], the system named is Myosotis arvensis. The assay is described as above. The protocol:
as §1

Assay [13] has as its system Polygonum convolvulus. Described as above. The protocol:
as §1

Assay [14] has as its system Polygonum lapathifolium. The assay is described as above. The protocol:
as §1

Assay [15] concerns Matricaria inodora. The description is as above. The protocol:
as §1

Setting [16] is: Galium aparine (1.whorl), 60 g a.i./ha.
[17] abbreviates: Galium aparine (1.whorl), 120 g a.i./ha.
Setting [18] is: Galium aparine (2.whorl), 60 g a.i./ha.
Setting [19] is: Galium aparine (2.whorl), 120 g a.i./ha.
The mark [20] stands for this setting: Galium aparine (1.whorl), 15 g a.i./ha.
The mark [21] stands for this setting: Galium aparine (1.whorl), 30 g a.i./ha.
[22] abbreviates: Galium aparine (2.whorl), 15 g a.i./ha.

Several values for one entry are separate records, joined by “and”; a condition that tells them apart may be missing. Equal values may be shown once.

As to `Cc1cc(OCc2ccccc2)nc(Oc2cc(C(F)(F)F)nn2C)c1` [Compound D], in [1] (15 g a.i./ha), the “% Control” value is 60% and 57%.

Turning to `CC(Oc1ccc(Oc2nc3ccc(Cl)cc3o2)cc1)C(=O)O` (centres unmarked) [Fenoxaprop, reference compound], the figures for the “% Control” value in assay [2] (15 g a.i./ha), in assay [2] (30 g a.i./ha) and in assay [2] (60 g a.i./ha) were 62%, 72% and 77%, respectively.

For the compound `CCCCCCCC(=O)Oc1c(Br)cc(C#N)cc1Br` [Bromoxynil, Bromoxynil Octanoate, reference compound], the “% Control” value was 70% in assay [3] (setting [16]); 75% in assay [3] (setting [17]); 57% in [3] (setting [18]); 77% in assay [3] (setting [19]); 0% in [4] (60 g a.i./ha); 79% in assay [5] (60 g a.i./ha). Further, the “% Control” value in [6] (60 g a.i./ha) is on record as 17%.

`Cc1cc(OCc2ccc(F)cc2)nc(Oc2cc(C(F)(F)F)nn2C)c1` [Compound C]: in [2] (12.5 g a.i./ha), the “% Control” value is reported as 30%. The “% control” value in assay [2] (12.5 g a.i./ha) is listed as 30%; in assay [2] (25 g a.i./ha), 55%; in assay [2] (50 g a.i./ha), 75%; in assay [7] (12.5 g a.i./ha), 38%; in assay [7] (25 g a.i./ha) it was 65%; in assay [7] (50 g a.i./ha), 78%. Further, the “% control” value in [8] (12.5 g a.i./ha) was 65%; in assay [8] (25 g a.i./ha) it was 83%; in assay [8] (50 g a.i./ha), 88%; in assay [9] (12.5 g a.i./ha) it was 75%.

On to `CC(C)c1ccc(NC(=O)N(C)C)cc1` [Isoproturon, reference compound], for which the “% Control” value in assay [3] (Galium aparine (2.whorl), 1920 g a.i./ha) was 0%; in [10] (1920 g a.i./ha), 65%; in assay [11] (1920 g a.i./ha) it was 0%; in assay [12] (1920 g a.i./ha) it was 25%; in assay [13] (1920 g a.i./ha), 4%; in assay [6] (1920 g a.i./ha), 3%. Besides, the “% Control” value in [1] (120 g a.i./ha) is 75%. For the same compound, the “% control” value in assay [2] (150 g a.i./ha) was determined as 58%; in assay [7] (150 g a.i./ha), 10%; in [7] (300 g a.i./ha), 40%; in assay [8] (150 g a.i./ha), 30%; in [8] (300 g a.i./ha) it was 73%; in assay [9] (150 g a.i./ha), 65%. Moreover, the “% control” value in assay [9] (300 g a.i./ha) turned out to be 83%.

On to `Cc1cc(Oc2cc(C(F)(F)F)nn2C)nc(Oc2cc(C(F)(F)F)nn2C)c1` [Compound B], for which the “% Control” value in assay [3] (Galium aparine (1.whorl), 15 9 a.i./ha) is 80%; in [3] (setting [20]), 67% and 40%; in assay [3] (setting [21]), 83% and 52%; in assay [3] (Galium aparine (2.whorl), 15 9 a.i./ha), 60%; in assay [3] (setting [22]), 45% and 37%; in assay [3] (Galium aparine (2.whorl), 30 g a.i./ha) it was 67% and 65% and 45%. The “% Control” value in assay [3] (Galium aparine (3.whorl), 15 g a.i./ha) was found to be 40%; in assay [3] (Galium aparine (3.whorl), 30 g a.i./ha), 40%; in assay [11] (7.5 g a.i./ha), 65%; in assay [11] (15 g a.i./ha) it was 77%; in assay [14] (15 g a.i./ha) it was 17%; in assay [4] (7.5 g a.i./ha), 25%. In addition, the “% Control” value in assay [4] (15 g a.i./ha) was 47% and 45% and 27%; in [4] (30 g a.i./ha), 62% and 42%; in [5] (7.5 g a.i./ha), 7%; in [15] (15 9 a.i./ha), 7%; in assay [15] (15 g a.i./ha), 20%; in assay [15] (30 g a.i./ha), 22%. The “% Control” value in assay [13] (15 g a.i./ha) is 7%; in assay [13] (30 g a.i./ha) it was 15% and 7%; in assay [6] (7.5 g a.i./ha) it was 70%.

In the case of `Cn1nc(C(F)(F)F)cc1Oc1cccc(Oc2cc(C(F)(F)F)nn2C)n1` [Compound A], the “% Control” value is 80% and 57% in assay [3] (setting [21]); 50% in assay [3] (Galium aparine (1.whorl), 50 g a.i./ha); 67% in assay [3] (setting [16]); 30% in assay [3] (Galium aparine (2.whorl), 50 g a.i./ha); 42% in assay [3] (setting [18]); 75% in [10] (30 g a.i./ha). For the same compound, the “% Control” value in [11] (30 g a.i./ha) was 81%; in [4] (30 g a.i./ha) it was 45% and 65%; in [5] (15 g a.i./ha) it was 79%; in assay [5] (60 g a.i./ha), 10%; in assay [15] (15 g a.i./ha), 1%; in [15] (30 g a.i./ha), 1%. In addition, the “% Control” value was 72% in assay [12] (15 g a.i./ha); 57% in assay [12] (30 g a.i./ha); 65% and 62% and 35% in assay [6] (30 g a.i./ha).

As for `N#Cc1cc(I)c(O)c(I)c1` [loxynil, reference compound], the “% Control” value stood at 40% in assay [3] (setting [16]); 5% in assay [3] (setting [18]); 0% in [5] (60 g a.i./ha); 89% in assay [15] (60 g a.i./ha); 37% in [12] (60 g a.i./ha).

Turning to `Nc1c(Cl)c(F)nc(OCC(=O)O)c1Cl` [Fluroxypyr, reference compound], the “% Control” value in [11] (120 g a.i./ha) is given as 52%; in assay [14] (120 g a.i./ha) it was 80%; in assay [4] (120 g a.i./ha), 67%; in [5] (90 g a.i./ha), 0%; in assay [15] (90 g a.i./ha), 45%; in assay [13] (90 g a.i./ha), 45%.

For the compound `COc1cc(OC)nc(NC(=O)NS(=O)(=O)N(C)S(C)(=O)=O)n1` [Amidosulfuron, reference compound], the “% Control” value was 40% in assay [3] (setting [20]); 20% in assay [3] (setting [22]); 0% in assay [11] (30 g a.i./ha); 50% in assay [4] (30 g a.i./ha); 15% in [5] (30 g a.i./ha); 0% in assay [6] (30 g a.i./ha).

`CCC(CC)Nc1c([N+](=O)[O-])cc(C)c(C)c1[N+](=O)[O-]` [Pendimethalin]: the entries for the “% Control” value in assay [1] (450 g a.i./ha) and in assay [1] (900 g a.i./ha) were 35% and 55%, respectively.

For the compound `Cc1cc(Cl)ccc1O[C@H](C)C(=O)O` [CMPP-P, (R)-2-(4-chloro-2-methylphenoxy) proprionic acid], the “% Control” value in assay [5] (480 g a.i./ha) is 47%; in [13] (480 g a.i./ha), 40%; in assay [6] (480 g a.i./ha), 67%.

Regarding `CCNc1nc(Cl)nc(NC(C)(C)C#N)n1` [Cyanazine, reference compound], the “% Control” value came to 5% in [3] (setting [17]); 10% in assay [3] (Galium aparine (1.whorl), 240 g a.i./ha); 0% in assay [3] (setting [19]); 10% in assay [3] (Galium aparine (2.whorl), 240 g a.i./ha); 0% in assay [3] (Galium aparine (3.whorl), 120 g a.i./ha); 5% in assay [3] (Galium aparine (3.whorl), 240 g a.i./ha). Moreover, the “% Control” value in assay [4] (120 g a.i./ha) was 61%; in [4] (240 g a.i./ha) it was 72%; in [5] (120 g a.i./ha) it was 0%; in assay [5] (240 g a.i./ha) it was 0%; in assay [15] (120 g a.i./ha), 52%; in assay [15] (240 g a.i./ha) it was 85%. The “% Control” value in [13] (120 g a.i./ha) turned out to be 60%.

For the origin of these results see EP0888056B1, “HERBICIDAL MIXTURES” (BASF AKTIENGESELLSCHAFT, priority 1996, dated 1998).
